Values of other authors as cited in publication PMC7395068, “The evolution of strategies to minimise the risk of human drug-induced liver injury (DILI) in drug discovery and development” (Archives of Toxicology, 2020).
Where two headings read alike, the source gives them in different places. Where a SMILES comes first, the peptide text is derived from it. [ ]: non-standard residue; d: D form. d(hArg(Et2)) = CCN=C(NCC)NCCCC[C@@H](N)C(=O)O; hArg(Et2) = CCN=C(NCC)NCCCC[C@H](N)C(=O)O; dPhe(4-Cl) = N[C@H](Cc1ccc(Cl)cc1)C(=O)O; d2Nal = N[C@H](Cc1ccc2ccccc2c1)C(=O)O; d3Pal = N[C@H](Cc1cccnc1)C(=O)O

Settings: cited from earlier work
[1] = binary in vivo human DILI call, ref Chen 2016
[2] = human DILI, LTKB DILIrank category, ref Chen 2016

| Structure (SMILES) | DILI +VE (5-8), DILI -VE (-4) (in vivo) | DILI severity category (in vivo) | DILI +VE (5-8), DILI -VE (-4) [1] | DILI severity category [2] |
| --- | --- | --- | --- | --- |
| CNC[C@H](O)[C@@H](O)[C@H](O)[C@H](O)CO.CNC[C@H](O)[C@@H](O)[C@H](O)[C@H](O)CO.O=C([O-])CN(CCN(CC(=O)[O-])CC(=O)O)CCN(CC(=O)[O-])CC(=O)O.[Gd+3] [gadopentetate dimeglumine] | -VE | vNo-DILI-Concern |  |  |
| CC(O)CN1CCN(CC(=O)[O-])CCN(CC(=O)[O-])CCN(CC(=O)[O-])CC1.[Gd+3] (stereo not drawn) [gadoteridol] | -VE | vNo-DILI-Concern |  |  |
| COCCNC(=O)CN(CCN(CCN(CC(=O)[O-])CC(=O)NCCOC)CC(=O)[O-])CC(=O)[O-].[Gd+3] [gadoversetamide] | -VE | vNo-DILI-Concern |  |  |
| O=[N+]([O-])[O-].O=[N+]([O-])[O-].O=[N+]([O-])[O-].[Ga+3] [gallium nitrate] |  |  | -VE | Ambiguous DILI-concern |
| O=C(O)CCCO [gamma hydroxybutyric acid] |  |  | -VE | vNo-DILI-Concern |
| CCN=C(NCC)NCCCC[C@H](NC(=O)[C@H](CC(C)C)NC(=O)[C@@H](CCCCNC(=NCC)NCC)NC(=O)[C@H](Cc1ccc(O)cc1)NC(=O)[C@H](CO)NC(=O)[C@@H](Cc1cccnc1)NC(=O)[C@@H](Cc1ccc(Cl)cc1)NC(=O)[C@@H](Cc1ccc2ccccc2c1)NC(C)=O)C(=O)N1CCC[C@H]1C(=O)N[C@H](C)C(N)=O [ganirelix acetate] (Ac-[d2Nal][dPhe(4-Cl)][d3Pal]SY[d(hArg(Et2))]L[hArg(Et2)]P[dA]-NH2) | -VE | vNo-DILI-Concern |  |  |
| Nc1ccn([C@@H]2O[C@H](CO)[C@@H](O)C2(F)F)c(=O)n1 [gemcitabine] |  |  | +VE | vMost-DILI-Concern |
| CC(C)C[C@H](NC(=O)[C@@H](COC(C)(C)C)NC(=O)[C@H](Cc1ccc(O)cc1)NC(=O)[C@H](CO)NC(=O)[C@H](Cc1c[nH]c2ccccc12)NC(=O)[C@H](Cc1cnc[nH]1)NC(=O)[C@@H]1CCC(=O)N1)C(=O)N[C@@H](CCCNC(=N)N)C(=O)N1CCC[C@H]1C(=O)NNC(N)=O [goserelin] |  |  | -VE | Ambiguous DILI-concern |
| CN1C2CCCC1CC(NC(=O)c1nn(C)c3ccccc13)C2 (stereo not drawn) [granisetron] |  |  | -VE | Ambiguous DILI-concern |
| N=C(N)NC(=O)Cc1c(Cl)cccc1Cl [guanfacine] |  |  | -VE | Ambiguous DILI-concern |
| N=C(N)N [guanidine] | -VE | Ambiguous DILI-concern |  |  |
| CCCCCCCCCC(=O)OC1(c2ccc(Cl)cc2)CCN(CCCC(=O)c2ccc(F)cc2)CC1 [haloperidol decanoate] |  |  | -VE | Ambiguous DILI-concern |
| NCCc1cnc[nH]1.O=P(O)(O)O.O=P(O)(O)O [histamine diphosphate] | -VE | vNo-DILI-Concern |  |  |
| CCNC(=O)[C@@H]1CCCN1C(=O)[C@H](CCCNC(=N)N)NC(=O)[C@H](CC(C)C)NC(=O)[C@@H](Cc1cn(Cc2ccccc2)cn1)NC(=O)[C@H](Cc1ccc(O)cc1)NC(=O)[C@H](CO)NC(=O)[C@H](Cc1c[nH]c2ccccc12)NC(=O)[C@H](Cc1cnc[nH]1)NC(=O)[C@@H]1CCC(=O)N1 [histrelin acetate] |  |  | -VE | Ambiguous DILI-concern |
| C/C1=C2/[N-][C@H]([C@H](CC(N)=O)[C@@]2(C)CCC(=O)NC[C@@H](C)OP(=O)([O-])O[C@H]2[C@@H](O)[C@@H](n3cnc4cc(C)c(C)cc43)O[C@@H]2CO)[C@]2(C)N=C(/C(C)=C3N=C(/C=C4N=C1[C@@H](CCC(N)=O)C\4(C)C)[C@@H](CCC(N)=O)[C@]\3(C)CC(N)=O)[C@@H](CCC(N)=O)[C@]2(C)CC(N)=O.[Co+3].[OH-] [hydroxocobalamin] |  |  | -VE | Ambiguous DILI-concern |
